The values that follow come from ChEMBL document CHEMBL3808345, “Discovery of triazolopyridine GS-458967, a late sodium current inhibitor (Late INai) of the cardiac NaV 1.5 channel with improved efficacy and potency relative to ranolazine” (Bioorg Med Chem Lett, 2016).

The nature of data set [1]: AUC (0 to infinity) in po dosed cynomolgus monkey. Type of data set: ADME, organism-based, Macaca fascicularis. Further details: time infinity, route oral. The note with it: in vivo.
The nature of data set [2]: Volume of distribution at steady state in iv dosed cynomolgus monkey. It counts as ADME, organism-based, Macaca fascicularis. As to conditions: in vivo, read-out: Vdss.
Data set [3] can be described thus: Volume of distribution at steady state in iv dosed rat. Type of data set: ADME, organism-based. The note with it: in vivo, read-out: Vdss.
The nature of data set [4]: Tmax in po dosed cynomolgus monkey. It counts as ADME, organism-based, Macaca fascicularis. The note with it: in vivo.
Data set [5] in a line: Permeability from basolateral to apical side in human Caco2 cells at 10 uM. Type of data set: ADME, cell-based. The note with it: Caco-2, read-out: permeability. Background: Passage across Caco-2 layers is used to estimate intestinal permeability.
The nature of data set [6]: Tmax in po dosed rat. Type of data set: ADME, organism-based. As to conditions: in vivo.
Data set [7] can be described thus: Oral bioavailability in cynomolgus monkey. It counts as ADME, organism-based, Macaca fascicularis. As to conditions: in vivo.
Data set [8] can be described thus: Stability in rat liver microsomes. It counts as ADME. (In general: Liver microsomes are vesicles of endoplasmic reticulum, rich in cytochrome P450 enzymes.)
The nature of data set [9]: Permeability from apical to basolateral side in human Caco2 cells at 10 uM. It counts as ADME, cell-based. As to conditions: Caco-2, read-out: permeability.
Data set [10] in a line: Permeability from basolateral to apical side in human Caco2 cells at 1 uM. Type of data set: ADME, cell-based. As to conditions: Caco-2, read-out: permeability.
Data set [11] can be described thus: Permeability from apical to basolateral side in human Caco2 cells at 1 uM. It counts as ADME, cell-based. The note with it: Caco-2, read-out: permeability.
Data set [12] can be described thus: Clearance in iv dosed rat. Type of data set: ADME, organism-based. The note with it: in vivo.
Data set [13] is described as follows: Cmax in po dosed cynomolgus monkey. It counts as ADME, organism-based, Macaca fascicularis. Details: route oral. The note with it: in vivo.
A short description of data set [14]: Stability in human liver microsomes. It counts as ADME.
A short description of data set [15]: AUC (0 to infinity) in po dosed rat. It counts as ADME, organism-based. Further details: time infinity, route oral. The note with it: in vivo.
A short description of data set [16]: Clearance in iv dosed cynomolgus monkey. As to conditions: in vivo. It counts as ADME, organism-based, Macaca fascicularis.
A short description of data set [17]: Lipophilicity, logD of the compound. Type of data set: physicochemical. The note with it: octanol/water.
Data set [18] can be described thus: Aqueous solubility of the compound in PBS at pH 7.6. Type of data set: physicochemical.
Data set [19] is described as follows: Stability in dog liver microsomes. It counts as ADME, Canis lupus familiaris.
Data set [20] can be described thus: Cmax in po dosed rat. Type of data set: ADME, organism-based. Details: route oral. As to conditions: in vivo.
Data set [21] can be described thus: Oral bioavailability in rat. Type of data set: ADME, organism-based. The note with it: in vivo.
A short description of data set [22]: Aqueous solubility of the compound in HCL at pH 2.2. It counts as physicochemical.

Molecules are shown by their SMILES. In brackets after ≈: the same amount, converted by molar mass. Bounds are passed on as bounds.

In the case of `FC(F)(F)Oc1ccc(-c2ccc3nnc(C(F)(F)F)n3c2)cc1`, the AUC(0-inf) – broadly, the area under the concentration-time curve extrapolated to infinity – in data set [1] was 76.1 µM·h; in [15] it was 5.7 µM·h. The Vd in data set [2] came out at 0.6 L; in [3], 3.4 L. The Tmax (in general, the time at which the peak concentration occurs) came out at 6 h in data set [4] and 2.7 h in data set [6]. Also, the Papp B→A at 10 µM in data set [5] amounted to 35.2 ×10⁻⁶ cm/s. In addition, the values for the bioavailability in data set [7] and in data set [21] were 83% and 105%, respectively. Besides, the half-life (usually how long it takes for the measured level to halve) in data set [8] was 3.82 h; in data set [14], greater than 6.58 h; in data set [19], 1.17 h. The Papp A→B at 10 µM in data set [9] was determined as 27.9 ×10⁻⁶ cm/s. Moreover, the Papp B→A at 1 µM in data set [10] amounted to 44 ×10⁻⁶ cm/s. Also, the Papp A→B at 1 µM in data set [11] was found to be 41.2 ×10⁻⁶ cm/s. Moreover, the figures for the clearance in data set [12] and in [16] were 3.22 mL/min/kg and 0.217 mL/min/kg, respectively. Moreover, the peak concentration (Cmax) (in general, the peak of the concentration-time curve) in data set [13] was 1480 nM; in [20], 397 nM. In data set [17], the logD – broadly, lipophilicity at a set pH, counting ionised and neutral species – was determined as 3.38. For the same molecule, the solubility – broadly, the dissolved amount per volume that the medium holds – turned out to be 4.7 µM (≈ 1.63 µg/mL) in data set [18] and 6 µM (≈ 2.08 µg/mL) in data set [22].
